Results from ChEMBL document CHEMBL1134339, “New 1-aryl-3-(4-arylpiperazin-1-yl)propane derivatives, with dual action at 5-HT1A serotonin receptors and serotonin transporter, as a new class of antidepressants” (J Med Chem, 2001).

Assays:
[1] = molecular target: Sodium-dependent serotonin transporter (Rattus norvegicus, UniProt P31652); assay: Binding affinity towards Serotonin transporter from rat cortex measured using [3H]paroxetine; conditions: read-out: Ki
Rattus norvegicus [2] = assay: Effect on helpless behavior in rats and the number of escape failures was determined in shuttle-box session-1 (SB-1) at 1 mg/kg dose; format: functional
Mus musculus [3] = assay: Time-dependent effect on 8-OH-DPAT-induced hypothermia (change in body temperature) after 15 min, in mice at 0.5 mg/kg dose; format: functional
Mus musculus [4] = assay: Time-dependent effect on 8-OH-DPAT-induced hypothermia (change in body temperature) after 30 min, in mice at 0.1 mg/kg dose; format: functional
[5] = molecular target: T1, 5-hydroxytryptamine receptor 1A (Homo sapiens) (UniProt P08908); conditions: HeLa
T1 sequence (whole entry): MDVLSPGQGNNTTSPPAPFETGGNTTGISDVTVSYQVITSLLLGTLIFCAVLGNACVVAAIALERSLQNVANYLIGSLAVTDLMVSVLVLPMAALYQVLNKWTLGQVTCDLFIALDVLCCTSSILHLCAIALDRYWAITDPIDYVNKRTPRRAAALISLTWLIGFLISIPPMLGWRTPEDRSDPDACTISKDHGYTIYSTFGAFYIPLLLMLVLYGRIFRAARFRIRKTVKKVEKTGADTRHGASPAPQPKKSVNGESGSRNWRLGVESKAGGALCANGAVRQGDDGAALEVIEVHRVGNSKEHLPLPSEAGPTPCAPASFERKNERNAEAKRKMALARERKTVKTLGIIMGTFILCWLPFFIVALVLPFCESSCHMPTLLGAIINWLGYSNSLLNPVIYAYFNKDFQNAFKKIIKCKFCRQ
Description: Effect on Forskolin-Stimulated cAMP formation, in HeLa cells transfected with the 5-HT 1A receptor at 1 uM concentration

[6] = molecular target: T2, 5-hydroxytryptamine receptor 1A (Rattus norvegicus, UniProt P19327); assay: Binding affinity to 5-hydroxytryptamine 1A receptor (5-HT 1A receptor, serotonin receptor) from rat cortex using [3H]8-OH-DPAT as radioligand
T2 sequence (P19327 whole entry): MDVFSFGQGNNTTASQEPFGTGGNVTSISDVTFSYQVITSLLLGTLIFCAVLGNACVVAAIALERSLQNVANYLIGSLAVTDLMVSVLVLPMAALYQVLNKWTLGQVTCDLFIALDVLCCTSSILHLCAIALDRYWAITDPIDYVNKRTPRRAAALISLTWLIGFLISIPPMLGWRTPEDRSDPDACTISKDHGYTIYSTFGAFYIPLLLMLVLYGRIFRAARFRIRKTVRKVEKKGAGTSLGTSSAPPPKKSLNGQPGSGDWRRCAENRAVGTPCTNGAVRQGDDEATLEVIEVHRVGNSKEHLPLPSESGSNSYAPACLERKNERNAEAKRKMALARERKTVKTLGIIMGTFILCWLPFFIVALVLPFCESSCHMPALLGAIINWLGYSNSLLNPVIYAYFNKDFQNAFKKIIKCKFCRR

Mus musculus [7] = assay: Effect on immobility time in the forced swimming test (FST) in mice at 0 mg/kg dose; format: functional
Rattus norvegicus [8] = assay: Effect on helpless behavior in rats and the number of escape failures was determined in shuttle-box session-2 (SB-2) at 1 mg/kg dose; format: functional
Mus musculus [9] = assay: Effect on immobility time in the forced swimming test (FST) in mice at 0.1 mg/kg dose; format: functional
Mus musculus [10] = assay: Time-dependent effect on 8-OH-DPAT-induced hypothermia (change in body temperature) after 30 min, in mice at 0.5 mg/kg dose; format: functional
Mus musculus [11] = assay: Effect on immobility time in the forced swimming test (FST) in mice at 1 mg/kg dose; format: functional
[12] = molecular target: T1, 5-hydroxytryptamine receptor 1A (Homo sapiens); conditions: HeLa; remark: listed apart in the source
Description: Effect (1 uM) on Forskolin-Stimulated cAMP formation, in HeLa cells transfected with the 5-HT 1A receptor

Mus musculus [13] = assay: Time-dependent effect on 8-OH-DPAT-induced hypothermia (change in body temperature) after 60 min, in mice at 0.5 mg/kg dose; format: functional
Mus musculus [14] = assay: Time-dependent effect on 8-OH-DPAT-induced hypothermia (change in body temperature) after 15 min, in mice at 5 mg/kg dose; format: functional

Chain of Sodium-dependent serotonin transporter (P31652 whole entry): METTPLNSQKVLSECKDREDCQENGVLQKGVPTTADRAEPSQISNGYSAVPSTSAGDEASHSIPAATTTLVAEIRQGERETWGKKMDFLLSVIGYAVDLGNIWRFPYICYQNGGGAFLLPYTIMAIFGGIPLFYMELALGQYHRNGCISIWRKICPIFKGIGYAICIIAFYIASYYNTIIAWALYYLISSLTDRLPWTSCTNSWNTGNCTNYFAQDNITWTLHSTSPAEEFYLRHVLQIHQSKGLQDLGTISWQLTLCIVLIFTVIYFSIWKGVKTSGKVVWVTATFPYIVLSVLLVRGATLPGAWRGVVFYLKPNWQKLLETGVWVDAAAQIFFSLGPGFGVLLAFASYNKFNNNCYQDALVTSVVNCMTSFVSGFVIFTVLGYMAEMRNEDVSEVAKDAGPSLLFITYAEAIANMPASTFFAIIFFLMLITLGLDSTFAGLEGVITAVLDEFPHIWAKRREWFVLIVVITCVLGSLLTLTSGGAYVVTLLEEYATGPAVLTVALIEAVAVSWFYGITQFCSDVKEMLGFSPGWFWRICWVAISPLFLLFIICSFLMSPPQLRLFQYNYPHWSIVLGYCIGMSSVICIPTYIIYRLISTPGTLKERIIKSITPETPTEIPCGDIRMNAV

Row | Compound | Ki [1] [nM] | No. of escape failures (Rattus norvegicus [2]) | Temperature change (Mus musculus [3]) [°C] | Temperature change (Mus musculus [4]) [°C] | cAMP [5] [pmol/well] | Ki ([6]; read-out: Ki) [nM] | Immobility time (Mus musculus [7]) [s] | No. of escape failures (Rattus norvegicus [8]) | Immobility time (Mus musculus [9]) [s] | Temperature change (Mus musculus [10]) [°C] | Immobility time (Mus musculus [11]) [s] | cAMP [12] [pmol/well] | Temperature change (Mus musculus [13]) [°C] | Temperature change (Mus musculus [14]) [°C] | Ki [6] [nM]
1 | COc1ccccc1N1CCN(CCC(O)c2csc3ccccc23)CC1 (configuration not stated) | 20 | 8 | -1.23 | -1.3 | 19.1 | 20 | 145 | 2.3 | <99.5 | -1.38 | 101.8 | 18.1 | -0.63 | -2.2 | –
2 | COc1ccccc1N1CCN(CCC(=O)c2csc3ccccc23)CC1 | 105 | <9.8 | <-1.58 | -1.66 | 27 | – | 169.4 | <4 | 141.4 | <-0.86 | <77.1 | < 20.8 | <-0.47 | -2.53 | 44
3 | COc1ccccc1N1CCN(CCC(Oc2cccc3ccccc23)c2ccsc2)CC1 (configuration not stated) | 150 | 5.8 | -1.72 | -1.54 | 28.5 | 180 | 157.1 | 1.3 | 194.4 | -1.35 | <91.6 | < 15.4 | -0.52 | -2.73 | –
